The test system of data set [1] is Musca domestica. Put plainly: Musca domestica test. The data set is classed as in vivo. The note with it: 100 ppm, adult houseflies, after 2 days. From the text:
(§1) Solvent: dimethyl sulphoxide
Vessels containing a sponge treated with sugar solution and the active compound preparation of the desired concentration are populated with 10 adult houseflies (Musca domestica).

The subject of data set [2] is Phaedon cochleariae. Put plainly: Phaedon cochleariae spray test. Conditions: larvae on Chinese cabbage leaf discs, after 7 days.
Data set [3] relates to Boophilus microplus. The experiment in a line: Boophilus microplus injection test. The data set is classed as in vivo. The note with it: 20 μg/animal, engorged adult female ticks, after 7 days. The method, then: as §1
1 μl of the active compound solution is injected into the abdomen of 5 engorged adult female cattle ticks (Boophilus microplus). The animals are transferred into dishes and kept in a climate-controlled room.
Efficacy is assessed after 7 days by laying of fertile eggs. Eggs which are not visibly fertile are stored in a climate-controlled cabinet until the larvae hatch after about 42 days. An efficacy of 100% means that none of the ticks has laid any fertile eggs; 0% means that all the eggs are fertile.

The nature of data set [4]: log P determination by HPLC on reversed-phase column (C18), EEC Directive 79/831 Annex V.A8, acidic (formic acid). The data set is classed as physicochemical. The note with it: HPLC method a), acetonitrile/water with formic acid. As to the method:
^1 The stated mass is the peak of the isotope pattern of the [M+H]^+ ion of the highest intensity; if the [M-H]^- ion was detected, the stated mass is identified with ^2. ^2 The stated mass is the peak of the isotope pattern of the [M-H]^- ion of the highest intensity. ^a) Note regarding the determination of the log P values and mass detection: The determination of the given log P values was carried out in accordance with EEC Directive 79/831 Annex V.A8 by HPLC (High Performance Liquid Chromatography) on a reversed-phase column (C18). […] Mass detection is effected by means of an […] system. ^b) Note regarding the determination of the retention time and mass detection: The stated retention times were determined on a reversed-phase column (C18) Shimadzu LCMS 2020; 50*3.0 Shimadzu shim-pack XR-ODS 2.2 micron; mobile phase A: water (0.05% TFA); mobile phase B: acetonitrile; linear gradient from 5% acetonitrile to 95% acetonitrile in 6.00 min, then 95% acetonitrile for a further 1.1 min; oven temperature 40° C.; flow rate: 1.0 ml/min. ^c) Note regarding the determination of the retention time and mass detection: Instrument: Waters ACQUITY SQD UPLC system; column. Waters Acquity UPLC HSS T3 1.8μ 50×1 mm; mobile phase A: 1 l of water+0.25 ml of 99% strength formic acid, mobile phase B: 1 l of acetonitrile+0.25 ml of 99% strength formic acid; gradient: 0.0 min 90% A→1.2 min 5% A→2.0 min 5% A oven: 50° C.; flow rate: 0.40 ml/min; UV detection: 208-400 nm. ^d) Note regarding the determination of the retention time and mass detection: […] The determination of the given log P values was carried out in accordance with EEC Directive 79/831 Annex V.A8 by HPLC (High Performance Liquid Chromatography) on a reversed-phase column (C18). […] Mass detection is effected by means of an […] system.

Data set [5] concerns Lucilia cuprina. The experiment in a line: Lucilia cuprina test. The data set is classed as in vivo. The note with it: 100 ppm, L1 larvae, after 2 days. As to the method: as §1
About 20 L1 larvae of the Australian sheep blowfly (Lucilia cuprina) are transferred into a test vessel containing minced horsemeat and the active compound preparation of the desired concentration.
After 2 days, the kill in % is determined.

For data set [6], the system named is Ctenocephalides felis. Put plainly: Ctenocephalides felis oral test. The data set is classed as in vivo. The note with it: 100 ppm in citrated cattle blood, after 2 days.
Excerpt: as §1
Dilution with citrated cattle blood gives the desired concentration.
About 20 unfed adult cat fleas (Ctenocephalides felis) are placed into a chamber which is closed at the top and bottom with gauze. A metal cylinder whose bottom end is closed with parafilm is placed onto the chamber. The cylinder contains the blood/active compound preparation, which can be imbibed by the fleas through the parafilm membrane.

Data set [7] concerns Tetranychus urticae. The experiment in a line: Tetranychus urticae spray test, OP-resistant (bean leaf discs). The data set is classed as in vivo. Conditions: after 6 days. As to the method: (§2) Solvent: 78.0 parts by weight of acetone
After 6 days, the efficacy in % is determined.

The test system of data set [8] is Spodoptera frugiperda. The experiment in a line: Spodoptera frugiperda spray test. The data set is classed as in vivo. Conditions: caterpillars on maize leaf discs, after 7 days.
Excerpt: as §2

The test system of data set [9] is Rhipicephalus sanguineus. Put plainly: Rhipicephalus sanguineus in vitro contact test with adult brown dog ticks. The data set is classed as in vivo. The note with it: after 48 h, adult ticks dead or moribund. The method, then:
(§3) For the coating of the test tubes, 9 mg of active compound are first dissolved in 1 ml of acetone p.a. and then diluted to the desired concentration with acetone p.a. 250 μl of the solution are distributed homogeneously on the inner walls and the base of a 25 ml test tube by turning and rocking on an orbital shaker (rocking rotation at 30 rpm for 2 h). With 900 ppm active compound solution and internal surface 44.7 cm^2, given homogeneous distribution, an area-based dose of 5 μg/cm^2 is achieved.
After the solvent has evaporated off, the tubes are populated with 5-10 adult dog ticks (Rhipicephalus sanguineus), sealed with a perforated plastic lid and incubated in a horizontal position in the dark at room temperature and ambient humidity. After 48 h, efficacy is determined. To this end, the ticks are knocked to the floor of the tube and incubated on a hotplate at 45-50° C. for not more than 5 min. Ticks which remain motionless on the floor or move in such an uncoordinated manner that they are unable to deliberately avoid the heat by climbing upwards are considered to be dead or moribund.
An efficacy of 100% means that all the ticks were dead or moribund. 0% efficacy means that none of the ticks had been harmed.

Data set [10] deals with Ctenocephalides felis. Put plainly: Ctenocephalides felis in vitro contact test with adult cat fleas. The note with it: application rate 5 μg/cm^2 (500 g/ha), after 48 h, adult cat fleas dead or moribund. The data set is classed as in vivo. As to the method:
as §3
After the solvent has evaporated off, the tubes are populated with 5-10 adult cat fleas (Ctenocephalides felis), sealed with a perforated plastic lid and incubated in a horizontal position at room temperature and ambient humidity. After 48 h, efficacy is determined. To this end, the test tubes are stood upright and the fleas are knocked to the base of the tube. Fleas which remain motionless at the base or move in an uncoordinated manner are considered to be dead or moribund.
100% efficacy means that all the fleas were dead or moribund. 0% efficacy means that no fleas were harmed.

Setting [11] is: application rate 5 μg/cm^2 (500 g/ha).

SMILES strings stand for the structures.

Here are results for 15 compounds from patent US10047076B2, “Halogen-substituted compounds” (BAYER CROPSCIENCE AKTIENGESELLSCHAFT, priority 2014, dated 2018).

A word on the logP: it is the decadic logarithm of the partition coefficient of the neutral form, usually between octanol and water. A low value points to a more hydrophilic compound. In general, chromatographic logP refers to lipophilicity estimated from chromatographic retention. High values mean a more lipophilic compound, low ones a more hydrophilic compound.

For `CCn1nc(-c2c(C(F)(F)F)c(C(F)(F)C(F)(F)F)nn2C)nc1-c1ccc(Cl)c(C(=O)NC2CC2)c1` [Ibh-4], the results for the “efficacy (kill in %)” value in [1], in data set [5] and in data set [6] were 90%, 100% and 90%, respectively. Further, the efficacy in [2] (500 g/ha) and in data set [7] (500 g/ha) was 100% each time. The “efficacy (laying of fertile eggs)” value in data set [3] worked out at 100%. The compound further came in with a logP in data set [4] of 3.99.

Turning to `Cn1nc(C(F)(F)C(F)(F)F)c(C(F)(F)F)c1-c1nc(-c2ccc(Cl)c(C(=O)NC3CC3)c2)no1` [Ibf-3], the “efficacy (kill in %)” value was 80% in data set [1], 100% in [5] and 100% in data set [6]. The efficacy in data set [2] (500 g/ha) and in [8] (500 g/ha) was 100% in each case. In addition, the “efficacy (laying of fertile eggs)” value in data set [3] is given as 100%. The compound also gave a logP in data set [4] of 4.26.

As to `Cn1nc(C(F)(F)C(F)(F)F)c(C(F)(F)F)c1-c1ccc(-c2ccc(Cl)c(C(=O)NC3(C#N)CC3)c2)o1` [Iaa-1], the “efficacy (kill in %)” value in data set [1], in data set [5] and in data set [6] was 100% each time. The efficacy in [2] (100 g/ha) and in data set [8] (100 g/ha) was 100% in each case. The “efficacy (laying of fertile eggs)” value in data set [3] was 100%. This compound registered a logP in [4] of 4.08.

Turning to `Cn1nc(-c2c(C(F)(F)F)c(C(F)(F)C(F)(F)F)nn2C)nc1-c1ccc(Cl)c(C(=O)NC2CC2)c1` [Ibh-8], the efficacy came to 100% in data set [2] (500 g/ha) and 83% in data set [8] (500 g/ha). The compound also had a logP in [4] of 3.67.

For the compound `Cn1nc(C(F)(F)C(F)(F)F)c(C(F)(F)F)c1-c1cc(-c2ccc(Cl)c(C(=O)NCC(F)(F)F)c2)no1` [Iap-2], the “efficacy (kill in %)” value in data set [1], in data set [5] and in data set [6] was 100% in each case. The efficacy amounted to 100% in data set [2] (100 g/ha), 80% in [9] (application rate 1 μg/cm^2 (100 g/ha)) and 100% in data set [8] (100 g/ha). The “efficacy (laying of fertile eggs)” value in data set [3] amounted to 100%. Also, in data set [4], the logP came out at 4.42.

Consider `Cn1nc(C(F)(F)C(F)(F)F)c(C(F)(F)F)c1-c1cc(-c2ccc(Cl)c(C(=O)NC3(C#N)CC3)c2)no1` [Iap-3], for which the “efficacy (kill in %)” value in [1], in data set [5] and in data set [6] was 100% each time. The efficacy in data set [10], in [2] (100 g/ha), in data set [9] (setting [11]), in data set [8] (100 g/ha) and in data set [7] (100 g/ha) was 100% each time. Also, the “efficacy (laying of fertile eggs)” value in data set [3] is 100%. Also, the logP in data set [4] is reported as 3.96.

As for `Cn1nc(C(F)(F)C(F)(F)F)c(C(F)(F)F)c1-c1noc(-c2ccc(Cl)c(C(=O)NC3CC3)c2)n1` [Ibe-1, 2-chloro-N-cyclopropyl-5-{3-[1-methyl-3-(pentafluoroethyl)-4-(trifluoromethyl)-1H-pyrazol-5-yl]-1,2,4-oxadiazol-5-yl}benzamide], the efficacy in data set [2] (500 g/ha) and in [8] (500 g/ha) was 100% in each case. In data set [4], this compound returned a chromatographic logP of 4.16.

For the compound `Cn1nc(C(F)(F)C(F)(F)F)c(C(F)(F)F)c1-c1cc(-c2ccc(Cl)c(C(=O)NC3CSC3)c2)no1` [Iap-4], the efficacy in data set [2] (500 g/ha) is given as 100%; in [9] (setting [11]), 100%; in [8] (500 g/ha) it was 80%; in data set [7] (500 g/ha) it was 90%. Also, the “efficacy (laying of fertile eggs)” value in data set [3] is 100%. In [4], this compound returned a logP of 4.37. The “efficacy (kill in %)” value in [5] and in data set [6] was 100% each time.

For `CCn1nc(-c2ccc(Cl)c(C(=O)NC3CC3)c2)nc1-c1c(C(F)(F)F)c(C(F)(F)C(F)(F)F)nn1C` [Ibg-5], the values for the efficacy in data set [2] (500 g/ha) and in data set [7] (500 g/ha) were 100% and 90%, respectively. Also, in data set [4], the logP is given as 4.09.

Turning to `Cn1nc(C(F)(F)C(F)(F)F)c(C(F)(F)F)c1-c1cc(-c2ccc(Cl)c(C(=O)NC3(C(F)(F)F)CC3)c2)no1` [Iap-5], the “efficacy (kill in %)” value in data set [1], in data set [5] and in data set [6] was 100% in each case. For the same compound, the efficacy in [2] (100 g/ha) turned out to be 100%. For the same compound, the “efficacy (laying of fertile eggs)” value in data set [3] is 100%. In data set [4], this compound had a logP of 4.55.

In the case of `Cn1nc(C(F)(F)C(F)(F)F)c(C(F)(F)F)c1-c1cc(-c2ccc(Cl)c(C(=O)NCC(=O)NCC(F)(F)F)c2)no1` [Iap-6], in data set [2] (100 g/ha), the efficacy is given as 100%. This compound also came in with a logP in data set [4] of 3.87.

On to `Cn1nc(-c2c(C(F)(F)F)c(C(F)(F)C(F)(F)F)nn2C)nc1-c1ccc(Cl)c(C(=O)NCC(F)(F)F)c1` [Ibh-3], for which the values for the efficacy in [2] (500 g/ha), in data set [8] (500 g/ha) and in data set [7] (500 g/ha) were 100%, 100% and 90%, respectively. In [4], the logP was 3.99.

Turning to `CC(C)n1nc(-c2ccc(Cl)c(C(=O)NCc3ccccc3)c2)nc1-c1c(C(F)(F)F)c(C(F)(F)C(F)(F)F)nn1C` [Ibg-8], the efficacy in data set [2] (500 g/ha) was 100%. In data set [4], this compound gave a logP of 4.93.

With `Cn1nc(C(F)(F)C(F)(F)F)c(C(F)(F)F)c1-c1noc(-c2ccc(Cl)c(C(=O)NC3(C#N)CC3)c2)n1` [Ibe-4], the “efficacy (kill in %)” value in [1], in [5] and in data set [6] was 100% each time. Further, the values for the efficacy in data set [2] (500 g/ha), in data set [8] (500 g/ha) and in data set [7] (500 g/ha) were 100%, 100% and 90%, respectively. In [3], the “efficacy (laying of fertile eggs)” value stood at 100%. This compound also registered a logP in [4] of 4.01.

For `Cn1nc(C(F)(F)C(F)(F)F)c(C(F)(F)F)c1-c1nc(-c2ccc(Cl)c(C(=O)NC3(C#N)CC3)c2)no1` [Ibf-2], the “efficacy (kill in %)” value in data set [1], in data set [5] and in [6] was 100% each time. For the same compound, the efficacy in data set [2] (500 g/ha) is recorded as 100%; in data set [9] (setting [11]), 80%; in [8] (500 g/ha) it was 100%. Moreover, the “efficacy (laying of fertile eggs)” value in [3] is listed as 100%. This compound gave a logP in data set [4] of 4.14.
